US9403812B2, “Triazole derivatives as Wnt signaling pathway inhibitors” (OSLO UNIVERSITY HOSPITAL, HF, priority 2010, dated 2016)

Key:
[1] = system: STF/REN HEK293 cells; experiment: Wnt3a-induced ST-Luc/Renilla luciferase reporter assay in STF/REN HEK293 cells; assay type: cell-based; details: Homo sapiens, 24 hours compound in 50% Wnt3a conditioned media, average of multiple experiments
Procedure: HEK293 cells (80,000 cells per well) were seeded in 96-well plates coated with poly-L lysine. 24 hours after seeding, the cells were incubated for an additional 24 hours with various compound concentrations in 50% Wnt3a containing conditioned media (from L Wnt3a-expressing cells (ATCC)). A minimum of three replicates was used for each sample. After compound exposure, the cells were lysed and the firefly luciferase and Renilla activities were measured on a GloMax® 96 Microplate Luminometer with Dual Injectors (Promega).
XLfit (idbs) was used to determine the IC50 values in inhibition experiments. The data were fit to the following formula:
IC50: Langmuir Binding Isotherm: fit=((A+(B*x))+(((C−B)*(1−exp((−1*D)*x)))/D)) res=(y−fit)
All values shown are average values from multiple experiments.

[2] = Stability in human liver microsomes; assay type: in vitro ADME; details: both sexes, pooled human liver microsomes, 0.5 mg/mL protein, 3 μM compound, pH 7.4, 37° C., NADPH, read-out: T ½ human liver microsomes
Procedure: Pooled human or rat liver microsomes (pooled male and female) were prepared and stored at −80° C. prior to use. […] The final incubation volume was 25 μL. A control incubation was included for each compound tested in which 0.1M phosphate buffer (pH 7.4) was added instead of NADPH (minus NADPH). Two control compounds were included with each species. All incubations were performed singularly for each test compound.
The reactions were stopped by the addition of 50 μL methanol containing internal standard at the appropriate time points. The incubation plates were centrifuged at 2,500 rpm for 20 mins at 4° C. to precipitate the protein.
Following protein precipitation, the sample supernatants were combined in cassettes of up to 4 compounds and analysed using Cyprotex generic LC-MS/MS conditions. […] The time point at which 30-50% of parent had degraded could then be investigated at 3 different levels of metabolite profiling and/or identification.
From a plot of ln peak area ratio (compound peak area/internal standard peak area) against time, the gradient of the line is determined. Subsequently, half-life and intrinsic clearance are calculated using the equations below: Elimination rate constant (k)=(−gradient)
[formula] [formula] • where V=Incubation volume (μL/mg microsomal protein).

[3] = system: RKO cells; experiment: IncuCyte cell proliferation assay, RKO; assay type: cell-based; details: RKO (Wnt-independent control, wild type APC); 0.1, 1, 5 μmol/L
Procedure: (§1) All cells were purchased from ATCC (American Type Culture Collection) and maintained according to the supplier's recommendations. Cells used were RKO, HCT-15, WiDr, HT29, DLD-1, COLO320DM and COLO205 cells. 1,000 cells were seeded in 96-well plates with the recommended media. […] All samples were assessed in a minimum of six replicates. Plates were incubated in an IncuCyte™ (Essen BioScience) inside a cell culture incubator. Images were captured every second hour to monitor cell proliferation. Mutations in the Adenomatouse Polyposis Coli (APC) gene, which occur in most colorectal cancers (CRC), lead to ineffective degradation of β-catenin and aberrant up-regulation of Wnt signaling. As a result, CRC cells may undergo cell cycle arrest as a result of antagonized canonical Wnt. Therefore, the kinetics of cell proliferation was monitored in selected Wnt responsive CRC cell lines by using an IncuCyte life tracking system.

[4] = system: HCT-15 cells; experiment: IncuCyte cell proliferation assay, HCT-15; assay type: cell-based; details: 0.1, 1, 5 μmol/L
Procedure: as §1

[5] = system: WiDr cells; experiment: IncuCyte cell proliferation assay, WiDr; assay type: cell-based; details: 0.1, 1, 5 μmol/L
Procedure: as §1

[6] = system: HT29 cells; experiment: IncuCyte cell proliferation assay, HT29; assay type: cell-based; details: 0.1, 1, 5 μmol/L
Procedure: as §1

[7] = system: DLD-1 cells; experiment: IncuCyte cell proliferation assay, DLD-1; assay type: cell-based; details: 0.1, 1, 5 μmol/L
Procedure: as §1

[8] = system: COLO320DM cells; experiment: IncuCyte cell proliferation assay, COLO320DM; assay type: cell-based; details: 0.1, 1, 5 μmol/L
Procedure: as §1

[9] = system: COLO205 cells; experiment: IncuCyte cell proliferation assay, COLO205; assay type: cell-based; details: 0.1, 1, 5 μmol/L
Procedure: as §1

[10] = biological target: T1, PARP1 (Homo sapiens, UniProt P09874); experiment: Chemiluminescent Assay Kit, PARP1; assay type: biochemical
T1 construct: purchased BPS Bioscience, Nordic Biosite 80551

[11] = system: β-catenin; experiment: Immunostaining of β-catenin in SW480 cells; assay type: cell-based; details: 500 nmol/L, 18 hours, immunofluorescence
Procedure: (§2) After incubation, the cells were fixed in 4% PFA in PBS for 10 minutes. Immunostaining was performed as described in standard protocols. Primary antibodies used were β-catenin (610153, BD Transduction Laboratories™) or AXIN2 (76G6, Cell Signaling Technology). Secondary antibodies used were DyLight549 (555) donkey-anti-mouse and Cy2-donkey-anti-rabbit (both Jackson ImmunoResearch, 1:1000). The samples were imaged using a Zeiss Axiovert 200M Fluorescence/Live cell Imaging Microscope at 40 times magnification. A Zeiss LSM780 at 63 times magnification was used for confocal microscopy

[12] = system: AXIN2; experiment: Immunostaining of AXIN2 in SW480 cells; assay type: cell-based; details: 0.5 μmol/L, 18 hours, confocal microscopy
Procedure: as §2

T1 sequence (P09874 whole entry): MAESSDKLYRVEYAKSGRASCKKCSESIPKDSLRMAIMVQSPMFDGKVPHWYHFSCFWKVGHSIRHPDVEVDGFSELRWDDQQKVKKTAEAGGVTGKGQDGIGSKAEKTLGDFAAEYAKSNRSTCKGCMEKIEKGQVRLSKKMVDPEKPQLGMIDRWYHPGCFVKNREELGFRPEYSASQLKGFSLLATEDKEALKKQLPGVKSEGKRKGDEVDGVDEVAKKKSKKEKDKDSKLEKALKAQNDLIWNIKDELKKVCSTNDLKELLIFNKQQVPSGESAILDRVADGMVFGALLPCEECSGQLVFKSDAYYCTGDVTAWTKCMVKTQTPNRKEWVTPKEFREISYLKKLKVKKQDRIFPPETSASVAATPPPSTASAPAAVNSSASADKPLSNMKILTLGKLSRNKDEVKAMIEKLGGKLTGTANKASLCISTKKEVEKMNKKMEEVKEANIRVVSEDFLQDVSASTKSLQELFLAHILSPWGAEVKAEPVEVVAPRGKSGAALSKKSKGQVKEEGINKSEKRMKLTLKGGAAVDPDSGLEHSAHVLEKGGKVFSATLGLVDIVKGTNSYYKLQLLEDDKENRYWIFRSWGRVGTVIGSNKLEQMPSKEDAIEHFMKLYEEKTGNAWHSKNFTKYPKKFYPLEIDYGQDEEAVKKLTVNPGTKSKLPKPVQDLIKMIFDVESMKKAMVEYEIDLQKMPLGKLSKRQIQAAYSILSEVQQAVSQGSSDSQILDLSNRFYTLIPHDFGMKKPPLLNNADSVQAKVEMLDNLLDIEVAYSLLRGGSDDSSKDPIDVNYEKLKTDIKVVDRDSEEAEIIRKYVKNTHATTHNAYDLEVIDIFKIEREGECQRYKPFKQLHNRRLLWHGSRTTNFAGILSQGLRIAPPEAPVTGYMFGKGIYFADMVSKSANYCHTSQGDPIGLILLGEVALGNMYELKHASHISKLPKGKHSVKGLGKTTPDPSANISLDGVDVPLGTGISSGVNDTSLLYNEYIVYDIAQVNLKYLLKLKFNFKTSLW

| SMILES | IC50 [1] | half-life at 3 μM [2] | further results |
| --- | --- | --- | --- |
| COc1cc(-c2nnc(/C=C/c3nnc(-c4ccc(F)cc4)n3-c3ccccc3Cl)o2)ccn1 [(6)] | 1.2 µM | 48 min |  |
| COc1cc(C(=O)NNC(=O)/C=C/c2nnc(-c3ccc(F)cc3)n2-c2ccccc2Cl)ccn1 [(7)] | > 10 µM |  |  |
| Oc1cc(-c2nnc(/C=C/c3nnc(-c4ccc(F)cc4)n3-c3ccccc3Cl)o2)ccn1 [(8)] | 6.3 µM | 128 min |  |
| COc1cc(-c2nnc(/C=C/c3nnc(-c4ccc(Cl)cc4Cl)n3-c3ccccc3Cl)o2)ccn1 [Compound (1), 4-(5-((E)-2-(5-(2,4-dichlorophenyl)-4-(2-chlorophenyl)-4H-1,2,4-triazol-3-yl)vinyl)-1,3,4-oxadiazol-2-yl)-2-methoxypyridine] | 0.94 µM | 162 min |  |
| COc1cc(-c2nnc(/C=C/c3nnc(-c4ccc(S(C)(=O)=O)cc4)n3-c3ccccc3Cl)o2)ccn1 [Compound (2), 4-(5-((E)-2-(4-(2-chlorophenyl)-5-(4-(methylsulfonyl)phenyl)-4H-1,2,4-triazol-3-yl)vinyl)-1,3,4-oxadiazol-2-yl)-2-methoxypyridine] | 0.28 µM | 224 min |  |
| COc1cc(-c2nnc(/C=C/c3nnc(-c4ccncc4)n3-c3ccccc3Cl)o2)ccn1 [Compound (3), 4-(4-(2-chlorophenyl)-5-((E)-2-(5-(2-methoxypyridin-4-yl)-1,3,4-oxadiazol-2-yl)vinyl)-4H-1,2,4-triazol-3-yl)pyridine] | 0.19 µM | 37.6 min |  |
| COc1cc(-c2nnc(/C=C/c3nnc(-c4ccc(Cl)cn4)n3-c3ccccc3Cl)o2)ccn1 [Compound (4), 5-chloro-2-(4-(2-chlorophenyl)-5-((E)-2-(5-(2-methoxypyridin-4-yl)-1,3,4-oxadiazol-2-yl)vinyl)-4H-1,2,4-triazol-3-yl)pyridine] | 0.24 µM | 44.9 min |  |
| COc1cc(-c2nnc(/C=C/c3nnc(-c4nc(C)no4)n3-c3ccccc3Cl)o2)ccn1 [Compound (5), 4-(5-((E)-2-(4-(2-chlorophenyl)-5-(3-methyl-1,2,4-oxadiazol-5-yl)-4H-1,2,4-triazol-3-yl)vinyl)-1,3,4-oxadiazol-2-yl)-2-methoxypyridine] | > 10 µM | 5.41 min |  |
| CS(=O)(=O)c1ccc(-c2nnc(/C=C/c3nnc(-c4ccc(C#N)cc4)o3)n2-c2ccccc2Cl)nc1 [Compound (10), (E)-4-(5-(2-(4-(2-chlorophenyl)-5-(5-(methylsulfonyl)pyridin-2-yl)-4H-1,2,4-triazol-3-yl)vinyl)-1,3,4-oxadiazol-2-yl)benzonitrile] | 0.05 µM |  | cell growth inhibition [3]: did not; cell growth inhibition [4]: dose-dependent growth inhibition; cell growth inhibition [5]: dose-dependent growth inhibition; cell growth inhibition [6]: dose-dependent growth inhibition; cell growth inhibition [7]: dose-dependent growth inhibition; cell growth inhibition [8]: dose-dependent growth inhibition; cell growth inhibition [9]: dose-dependent growth inhibition; inhibition of PARP1 ([10]; at doses up to 20 μmol/L): no inhibition; IC50 ([10]; in vitro, table, read-out: IC50 value, PARP): > 20 µM; nuclear β-catenin [11]: strong reduction; total β-catenin [11]: general reduction; levels of cytoplasmic AXIN2 [12]: significantly increased |
| COc1cc(-c2nnc(/C=C/c3nnc(-c4ccncn4)n3-c3ccccc3Cl)o2)ccn1 [Compound (11), 4-(4-(2-chlorophenyl)-5-((E)-2-(5-(2-methoxypyridin-4-yl)-1,3,4-oxadiazol-2-yl)vinyl)-4H-1,2,4-triazol-3-yl)pyrimidine] | 0.08 µM | 59.6 min |  |
| COc1cc(-c2nnc(/C=C/c3nnc(-c4ccc(S(C)(=O)=O)cn4)n3-c3ccccc3Cl)o2)ccn1 [Compound (12), 2-(4-(2-chlorophenyl)-5-((E)-2-(5-(2-methoxypyridin-4-yl)-1,3,4-oxadiazol-2-yl)vinyl)-4H-1,2,4-triazol-3-yl)-5-(methylsulfonyl)pyridine] | 0.07 µM | 37.1 min |  |
| CCOc1ccc(-c2nnc(/C=C/c3nnc(-c4ccnc(OC)c4)o3)n2-c2ccccc2Cl)nc1 [Compound (13), 2-(4-(2-chlorophenyl)-5-((E)-2-(5-(2-methoxypyridin-4-yl)-1,3,4-oxadiazol-2-yl)vinyl)-4H-1,2,4-triazol-3-yl)-5-ethoxypyridine] | 0.11 µM | 212 min |  |
| CS(=O)(=O)c1ccc(-c2nnc(/C=C/c3nnc(-c4ccc(Cl)cc4)o3)n2-c2ccccc2Cl)nc1 [Compound (14), 2-(4-(2-chlorophenyl)-5-((E)-2-(5-(4-chlorophenyl)-1,3,4-oxadiazol-2-yl)vinyl)-4H-1,2,4-triazol-3-yl)-5-(methylsulfonyl)pyridine] | 0.04 µM | 371 min |  |
| CS(=O)(=O)c1ccc(-c2nnc(C#Cc3nnc(-c4ccc(C#N)cc4)o3)n2-c2ccccc2Cl)nc1 [Compound (33), 4-{5-[4-(2-Chloro-phenyl)-5-(5-methanesulfonyl-pyridin-2-yl)-4H-[1,2,4]triazol-3-ylethynyl]-[1,3,4]oxadiazol-2-yl}-benzonitrile] | 3.6 µM |  |  |
| CS(=O)(=O)c1ccc(-c2nnc(/C=C/c3nnc(-c4ccc(C#N)cc4)o3)n2-c2ccc(OC(F)(F)F)cc2Cl)nc1 [Compound (56)] | 0.39 µM |  |  |
| N#Cc1ccc(-c2nnc(/C=C/c3nnc(-c4ccc(OCC(F)(F)F)cn4)n3-c3ccccc3Cl)o2)cc1 [Compound (57), 4-[5-(2-{4-(2-Chloro-phenyl)-5-[5-(2,2,2-trifluoro-ethoxy)-pyridin-2-yl]-4H-[1,2,4]triazol-3-yl}-vinyl)-[1,3,4]oxadiazol-2-yl]-benzonitrile] | 0.1 µM |  |  |
| CS(=O)(=O)c1ccc(-c2nnc(/C(F)=C(\F)c3nnc(-c4ccc(C#N)cc4)o3)n2-c2ccccc2Cl)nc1 [Compound (58), 4-(5-{2-[4-(2-Chloro-phenyl)-5-(5-methanesulfonyl-pyridin-2-yl)-4H-[1,2,4]triazol-3-yl]-1,2-difluoro-vinyl}-[1,3,4]oxadiazol-2-yl)-benzonitrile] | > 10 µM |  |  |
